Assay [1] concerns collagen-induced arthritis in DBA mice. The assay is described as follows: Collagen-induced arthritis in DBA mice, cumulative score. Format: in vivo. The note with it: FIG. 1, score against days dosed, comparable to indomethacin. The text has this:
FIG. 1 is a graphical plot of the cumulative score in collagen-induced arthritis in DBA mice plotted against days dosed for vehicle, Roflumilast, Indomethacin, and Example 1.

Assay [2] concerns the target T1, human recombinant phosphodiesterase IVa (met-248) (Homo sapiens, UniProt P27815).
T1 construct: human recombinant phosphodiesterase IVa (met-248); GST; made in house; host or cells: baculovirus/Sf-9
The experiment in a line: SPA based PDE activity assay. Format: biochemical. Here is the method: Compounds which inhibit the hydrolysis of cAMP to AMP by the type-IV cAMP-specific phosphodiesterases were screened in a 96-well plate format as follows:
In a 96 well-plate at 30° C. the test compound was added (dissolved in 2 μL DMSO), 188 μL of substrate buffer containing [2,8-^3H] adenosine 3′,5′-cyclic phosphate (cAMP, 100 nM to 50 μM), 10 mM MgCl2, 1 mM EDTA, 50 mM Tris, pH 7.5. The reaction was initiated by the addition of human recombinant PDE4 (the amount was controlled so that ˜10% product was formed in 10 min.). The reaction was stopped after 10 min. by the addition of 1 mg of PDE-SPA beads (Amersham Pharmacia Biotech, Inc., Piscataway, N.J.). The product AMP generated was quantified on a Wallac Microbeta® 96-well plate counter (EG&G Wallac Co., Gaithersburg, Md.). The signal in the absence of enzyme was defined as the background. 100% activity was defined as the signal detected in the presence of enzyme and DMSO with the background subtracted. Percentage of inhibition was calculated accordingly. IC50 value was approximated with a non-linear regression fit using the standard 4-parameter/multiple binding sites equation from a ten point titration.

The test system of a further assay is IL-2. The experiment in a line: Inhibition of LPS or Con A stimulated human whole blood: IL-2. Format: cell-based. The note with it: read-out: Inhibition of LPS or Con A stimulate human whole blood, IL-2. The text has this: (§1) Rheumatoid arthritis (RA) is a systemic autoimmune disease resulting in progressive joint destruction and associated pain. Three major contributors to its pathology are joint inflammation, abnormal cellular and humoral responses, and synovial hyperplasia. T-lymphocytes (T-cells) and monocytes are the major cell types recovered from the synovial tissue of RA patients and experimental evidence confirms that pro-inflammatory cytokines produced by these cells are the major contributors to joint pathogenesis. The inventors have analyzed human whole blood for the production of various cytokines including Th1 and Th2 cytokines following stimulation with lipoplysaccharide (LPS) and Concanavalin A (ConA) in the presence or absence of PDE4 inhibitors. […] TNF-α sequestrants alone have shown clinical efficacy in RA. Thus, if sufficient levels of inhibition are achieved, PDE4 inhibitor-mediated TNF-α suppression would have efficacy in RA.
(§2) Inhibition of various Th1 and monocyte derived cytokines which may play a role in human rheumatoid arthritis.

For a further assay, the system named is GM-CSF. The assay is described as follows: Inhibition of LPS or Con A stimulated human whole blood: GM-CSF. Format: cell-based. The note with it: read-out: Inhibition of LPS or Con A stimulate human whole blood, GM-CSF.
Text: as §1, §2

The subject of the next assay is IFNγ. The experiment in a line: Inhibition of LPS or Con A stimulated human whole blood: IFNγ. Format: cell-based. The note with it: read-out: Inhibition of LPS or Con A stimulate human whole blood, IFNγ.
Text: as §1, §2

The subject of a further assay is TNF-α. The experiment in a line: Inhibition of LPS or Con A stimulated human whole blood: TNF-α. Format: cell-based. The note with it: read-out: Inhibition of LPS or Con A stimulate human whole blood, TNF-α.
Text: as §1
Whole blood provides a protein and cell-rich milieu appropriate for the study of biochemical efficacy of anti-inflammatory compounds such as PDE4-selective inhibitors. […] Upon stimulation with LPS, activated monocytes express and secrete TNF-α up to 8 hours and plasma levels remain stable for 24 hours. […]

The next assay has as its system IL-12. The experiment in a line: Inhibition of LPS or Con A stimulated human whole blood: IL-12. Format: cell-based. The note with it: read-out: Inhibition of LPS or Con A stimulate human whole blood, IL-12.
Text: as §1, §2

Where two headings read alike, the source gives them in different places.

T1 sequence (P27815 248-886): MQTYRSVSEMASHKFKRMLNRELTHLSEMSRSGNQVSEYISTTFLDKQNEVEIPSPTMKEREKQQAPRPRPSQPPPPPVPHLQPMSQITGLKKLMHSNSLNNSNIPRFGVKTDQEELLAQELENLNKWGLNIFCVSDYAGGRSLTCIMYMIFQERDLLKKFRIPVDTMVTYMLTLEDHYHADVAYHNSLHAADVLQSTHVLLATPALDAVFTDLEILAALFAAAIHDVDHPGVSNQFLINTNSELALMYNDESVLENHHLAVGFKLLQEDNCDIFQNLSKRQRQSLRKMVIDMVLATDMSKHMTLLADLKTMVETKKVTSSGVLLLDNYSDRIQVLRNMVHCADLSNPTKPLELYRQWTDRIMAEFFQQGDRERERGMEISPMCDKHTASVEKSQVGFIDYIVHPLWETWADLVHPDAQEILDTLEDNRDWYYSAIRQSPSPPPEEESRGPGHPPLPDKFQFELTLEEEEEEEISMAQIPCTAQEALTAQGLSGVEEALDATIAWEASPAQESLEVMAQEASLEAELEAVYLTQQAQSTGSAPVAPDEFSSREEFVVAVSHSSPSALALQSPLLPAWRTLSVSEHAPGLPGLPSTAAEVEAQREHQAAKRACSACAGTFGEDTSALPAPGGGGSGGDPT

As to `CC(C)NC(=O)/C(=C/c1cccc(-c2cc(C(C)(C)C#N)cc3cccnc23)c1)c1ccc(S(C)(=O)=O)cc1` [Example 1], in assay [1], the “cumulative score in collagen-induced arthritis” value is “low cumulative scores”. Moreover, in assay [2] (100 nM cAMP, purified GST fusion protein of human recombinant PDE IVa (met-248), baculovirus/Sf-9, read-out: IC50), the IC50 was found to be 0.00076 µM.
Regarding `Cc1c[n+]([O-])ccc1CC(c1ccc(C(O)(C(F)(F)F)C(F)(F)F)cc1)c1ccc(OC(F)F)c(OC(F)F)c1` (stereo not drawn) [Example 2], the IC50 came to 0.3 µM in the assay with IL-2; 0.00131 µM in assay [2]; 0.07 µM with GM-CSF; 0.05 µM in the assay with IFNγ; 0.05 µM with TNF-α; 0.13 µM with IL-12.
With `O=C(Nc1c(Cl)cncc1Cl)c1ccc(OC(F)F)c(OCC2CC2)c1` [Roflumilast, N-(3,5-dichloropyrid-4-yl)-3-cyclopropylmethoxy-4-difluoromethoxybenzamide, reference compound], the “cumulative score in collagen-induced arthritis” value in assay [1] is listed as “low cumulative scores”.

The values above are taken from patent US20060019932A1, “Treatment of rheumatoid arthritis by inhibition of pde4” (priority 2002, published 2006).
